ChEMBL document CHEMBL1781990, “Synthesis and pharmacological activity of O-aminoalkyl derivatives of 7-hydroxycoumarin” (2011)
Values after ≈ are worked out from the molar mass of the structure shown. Active and inactive are the calls of the source. The rule behind the calls is not given here.

How the values were obtained:
Micrococcus luteus [1] = experiment: Antibacterial against Micrococcus luteus ATCC 9341 after 24 hrs by NCCLS M7-A6 method; format: functional
Bacillus subtilis [2] = experiment: Antibacterial against Bacillus subtilis ATCC 6633 after 24 hrs by NCCLS M7-A6 method; format: functional
Bacillus cereus [3] = experiment: Antibacterial against Bacillus cereus ATCC 11778 after 24 hrs by NCCLS M7-A6 method; format: functional
Staphylococcus aureus [4] = experiment: Antibacterial against Staphylococcus aureus ATCC 6538 after 24 hrs by NCCLS M7-A6 method; format: functional; details: ATCC 6538, 24 h
Staphylococcus aureus [5] = experiment: Antibacterial against Staphylococcus aureus ATCC 6538P after 24 hrs by NCCLS M7-A6 method; format: functional
Escherichia coli [6] = experiment: Antibacterial against Escherichia coli ATCC 10536 after 24 hrs by NCCLS M7-A6 method; format: functional; details: ATCC 10536, 24 h
Staphylococcus aureus [7] = experiment: Antibacterial against Staphylococcus aureus ATCC 6538P at 20 mg/mL after 24 hrs by NCCLS M7-A6 method; format: functional, organism-based
Escherichia coli [8] = experiment: Antibacterial against Escherichia coli ATCC 8739 at 20 mg/mL after 24 hrs by NCCLS M7-A6 method; format: functional, organism-based
Escherichia coli [9] = experiment: Antibacterial against Escherichia coli ATCC 10536 at 20 mg/mL after 24 hrs by NCCLS M7-A6 method; format: functional, organism-based
Micrococcus luteus [10] = experiment: Antibacterial against Micrococcus luteus ATCC 9341 at 20 mg/mL after 24 hrs by NCCLS M7-A6 method; format: functional, organism-based
Micrococcus luteus [11] = experiment: Antibacterial against Micrococcus luteus ATCC 10240 at 20 mg/mL after 24 hrs by NCCLS M7-A6 method; format: functional, organism-based
Bacillus subtilis [12] = experiment: Antibacterial against Bacillus subtilis ATCC 6633 at 20 mg/mL after 24 hrs by NCCLS M7-A6 method; format: functional, organism-based
Bacillus cereus [13] = experiment: Antibacterial against Bacillus cereus ATCC 11778 at 20 mg/mL after 24 hrs by NCCLS M7-A6 method; format: functional, organism-based
Staphylococcus aureus [14] = experiment: Antibacterial against Staphylococcus aureus ATCC 6538 at 20 mg/mL after 24 hrs by NCCLS M7-A6 method; format: functional, organism-based
CCRF-CEM = experiment: Cytotoxicity against human CCRF-CEM cells assessed as cell growth inhibition at 10^-5 M; format: functional, cell-based
HOP-92 = experiment: Cytotoxicity against human HOP92 cells assessed as cell growth inhibition at 10^-5 M; format: functional, cell-based
HCC 2998 = experiment: Cytotoxicity against human HCC2998 cells assessed as cell growth inhibition at 10^-5 M; format: functional, cell-based
[15] = Micrococcus luteus, ATCC 9341, 24 h, read-out: MIC
[16] = Bacillus subtilis, ATCC 6633, 24 h, read-out: MIC
[17] = Bacillus cereus, ATCC 11778, 24 h, read-out: MIC

Structure (SMILES)	MIC (Micrococcus luteus [1]; [15]) [mM]	MIC (Bacillus subtilis [2]; [16]) [mM]	MIC (Bacillus cereus [3]; [17]) [mM]	MIC (Staphylococcus aureus [4]) [mM]	MIC (Staphylococcus aureus [5]) [mM]	MIC (Escherichia coli [6]) [mM]	Activity (Staphylococcus aureus [7])	Activity (Escherichia coli [8])	Activity (Escherichia coli [9])	Activity (Staphylococcus aureus [14])	further results
CC(=O)c1c(OCCN2CCCCC2)ccc2c(C)cc(=O)oc12	6.5 (≈ 2140 µg/mL)	39.1 (≈ 12900 µg/mL)	26.1 (≈ 8600 µg/mL)	39.1 (≈ 12900 µg/mL)	39.1 (≈ 12900 µg/mL)	13 (≈ 4280 µg/mL)					
CCN(CC)CCOc1ccc2c(C)cc(=O)oc2c1C(C)=O.Cl											MIC (Micrococcus luteus [1]): 3.5 mM
Cc1cc(=O)oc2cc(OCCN3CCCCC3C)ccc12 (stereo unspecified)	14.4 (≈ 4340 µg/mL)	14.4 (≈ 4340 µg/mL)	28.8 (≈ 8680 µg/mL)	43.2 (≈ 13000 µg/mL)	28.8 (≈ 8680 µg/mL)	14.4 (≈ 4340 µg/mL)					
O=c1ccc2ccc(O)cc2o1							inactive	inactive	inactive	inactive	Activity (Micrococcus luteus [10]): inactive; Activity (Micrococcus luteus [11]): inactive; Activity (Bacillus subtilis [12]): inactive; Activity (Bacillus cereus [13]): inactive
CCN(CC)CCOc1cc2oc(=O)cc(C)c2cc1C(C)=O [listing 1 of 2 here]											MIC (Micrococcus luteus [1]): 31.5 mM (≈ 10000 µg/mL); MIC (Bacillus subtilis [2]): 31.5 mM (≈ 10000 µg/mL); MIC (Bacillus cereus [3]): 63 mM (≈ 20000 µg/mL)
CCN(CC)CCOc1ccc2c(C)cc(=O)oc2c1C(C)=O [listing 2 of 2 here]							inactive	inactive	inactive	inactive	Activity (Bacillus subtilis [12]): inactive; Activity (Bacillus cereus [13]): inactive
CCN(CC)CCOc1cc2oc(=O)cc(C)c2cc1C(C)=O [listing 2 of 2 here]							inactive	inactive	inactive	inactive	
CC(C)N(CCOc1ccc2ccc(=O)oc2c1)C(C)C	46 (≈ 13300 µg/mL)	46 (≈ 13300 µg/mL)	30.7 (≈ 8880 µg/mL)		61.4 (≈ 17800 µg/mL)	46 (≈ 13300 µg/mL)				inactive	
O=c1ccc2ccc(OCCN3CCOCC3)cc2o1	18.2 (≈ 5010 µg/mL)	72.6 (≈ 20000 µg/mL)	72.6 (≈ 20000 µg/mL)	72.6 (≈ 20000 µg/mL)	36.3 (≈ 9990 µg/mL)	36.3 (≈ 9990 µg/mL)					
Cc1cc(=O)oc2cc(OCC[N+]3(C)CCCCC3C)ccc12 (stereo unspecified)	22.6	22.6	45.1				inactive	inactive	inactive	inactive	

Now from value to compound, other results behind:

MIC (Micrococcus luteus [1]; [15]) [mM]	MIC (Bacillus subtilis [2]; [16]) [mM]	MIC (Bacillus cereus [3]; [17]) [mM]	MIC (Staphylococcus aureus [4]) [mM]	MIC (Staphylococcus aureus [5]) [mM]	MIC (Escherichia coli [6]) [mM]	Structure (SMILES)	Activity (Staphylococcus aureus [7])	Activity (Escherichia coli [8])	Activity (Escherichia coli [9])	Activity (Staphylococcus aureus [14])	further results
2 (≈ 635 µg/mL)	3.9 (≈ 1240 µg/mL)	3.9 (≈ 1240 µg/mL)	3.9 (≈ 1240 µg/mL)	3.9 (≈ 1240 µg/mL)		CCN(CC)CCOc1ccc2c(C)cc(=O)oc2c1C(C)=O [listing 1 of 2 here]					
45.8 (≈ 9990 µg/mL)	22.9 (≈ 5000 µg/mL)	4.6 (≈ 1000 µg/mL)	45.8 (≈ 9990 µg/mL)			CC(=O)c1cc2c(C)cc(=O)oc2cc1O	inactive	inactive	inactive		
1.5 (≈ 548 µg/mL)	24.3 (≈ 8880 µg/mL)	24.3 (≈ 8880 µg/mL)	24.3 (≈ 8880 µg/mL)	24.3 (≈ 8880 µg/mL)	24.3 (≈ 8880 µg/mL)	CC(=O)c1cc2c(C)cc(=O)oc2cc1OCCN(C)Cc1ccccc1					
30.2 (≈ 10000 µg/mL)	30.2 (≈ 10000 µg/mL)	30.2 (≈ 10000 µg/mL)	30.2 (≈ 10000 µg/mL)	30.2 (≈ 10000 µg/mL)	30.2 (≈ 10000 µg/mL)	CC(=O)c1cc2c(C)cc(=O)oc2cc1OCCN1CCOCC1					growth inhibition (GI) (CCRF-CEM): Active; growth inhibition (GI) (HOP-92): Active; growth inhibition (GI) (HCC 2998): Active
1.7 (≈ 560 µg/mL)	1.7 (≈ 560 µg/mL)	1.7 (≈ 560 µg/mL)	13.3 (≈ 4380 µg/mL)	6.7 (≈ 2210 µg/mL)	13.3 (≈ 4380 µg/mL)	CC(=O)c1cc2c(C)cc(=O)oc2cc1OCCN1CCCCC1					
